# From US12123048B2, “Fluorinated 4′-alkylumbelliferyl a-D-glucopyranosides, biological sterilization indicators including the same and methods of using the same” (3M INNOVATIVE PROPERTIES COMPANY, priority 2018, dated 2024)
# Experiment: Fluorescence of control wells containing enzyme substrate in LB broth without spores
# Assay type: physicochemical
# Details: substrate 0.3 mg/mL, 60° C.
# Procedure: Luria-Bertani (LB) broth was prepared by dissolving tryptone (10 g/L), yeast extract (5 g/L), and NaCl (5 g/L) in deionized water. In the examples, 6′-fluoro-4′-methylumbelliferyl α-D-glucopyranoside (0.3 mg/mL) or 5′-fluoro-4′-methylumbelliferyl α-D-glucopyranoside (0.3 mg/mL) was added to the broth. In the comparative examples, 4′-methylumbelliferyl α-D-glucopyranoside (MUG) (0.3 mg/mL) or 6′,8′-Difluoro-4′-methylumbelliferyl α-D-glucopyranoside (0.3 mg/mL) was added to the broth. The pH of the broth was adjusted to either pH 6, pH 7, pH 8, or pH 9 using 0.1 N hydrochloric acid or 1N sodium hydroxide solutions. The broth was passed through a 0.22 micron filter prior to use.
# LB broth (pH 6) containing 6′-fluoro-4′-methylumbelliferyl α-D-glucopyranoside (0.3 mg/mL) (enzyme substrate of Example 1) was added to two wells (100 microliters per well) of a black 96-well microtiter plate with optically clear, flat bottom wells (NUNC #165301, Thermo Fisher Scientific, Waltham, MA). A 5 microliter aqueous suspension containing 5×10^6 Geobacillus stearothermophilus spores (ATCC 7953) was added to each well of the microtiter plate. Next, the contents of each well were mixed using a multiple aspiration/delivery sequence with the pipet. […] The top of the plate was covered with an optically clear sealing film (product #4311971, Applied Biosystems Corporation, Foster City, CA). The plate was warmed at 60° C. and shaken in a linear direction. Fluorescence readings (360 nm excitation/450 nm emission at 50% gain) were taken from the bottom of the plate. A reading was taken at an initial time point of 10 seconds and then at +1 minute intervals thereafter. A Synergy Neo2 fluorescence plate reader (BioTek Company, Winooski, VT) was used. In Table 1, the mean fluorescence values detected (RFU) at times of 10 seconds, +5 minutes, +10 minutes, and +30 minutes are reported. The mean fluorescence values detected for the control wells were 978 RFU at 10 seconds; 920 RFU at +5 minutes; 870 RFU at +10 minutes, and 746 RFU at +30 minutes.
# LB broth (pH 7) containing 6′-fluoro-4′-methylumbelliferyl α-D-glucopyranoside (0.3 mg/mL) (enzyme substrate of Example 1) was added to two wells (100 microliters per well) of a black 96-well microtiter plate with optically clear, flat bottom wells (NUNC #165301, Thermo Fisher Scientific). A 5 microliter aqueous suspension containing 5×10^6 Geobacillus stearothermophilus spores (ATCC 7953) was added to each well of the microtiter plate. Next, the contents of each well were mixed using a multiple aspiration/delivery sequence with the pipet. […] The top of the plate was covered with an optically clear sealing film (product #4311971, Applied Biosystems Corporation). The plate was warmed at 60° C. and shaken in a linear direction. Fluorescence readings (360 nm excitation/450 nm emission at 50% gain) were taken from the bottom of the plate. A reading was taken at an initial time point of 10 seconds and then at +1 minute intervals thereafter. A Synergy Neo2 fluorescence plate reader (BioTek Company) was used. In Table 2, the mean fluorescence values detected (RFU) at times of 10 seconds, +5 minutes, +10 minutes, and +30 minutes are reported. The mean fluorescence values detected for the control wells were 989 RFU at 10 seconds; 936 RFU at +5 minutes; 895 RFU at +10 minutes, and 763 RFU at +30 minutes.
# LB broth (pH 8) containing 6′-fluoro-4′-methylumbelliferyl α-D-glucopyranoside (0.3 mg/mL) (enzyme substrate of Example 1) was added to two wells (100 microliters per well) of a black 96-well microtiter plate with optically clear, flat bottom wells (NUNC #165301, Thermo Fisher Scientific). A 5 microliter aqueous suspension containing 5×10^6 Geobacillus stearothermophilus spores (ATCC 7953) was added to each well of the microtiter plate. Next, the contents of each well were mixed using a multiple aspiration/delivery sequence with the pipet. […]
Structure (SMILES),"mean fluorescence values detected for the control wells (pH 6 LB broth, 10 seconds)","mean fluorescence values detected for the control wells (pH 6 LB broth, +5 minutes)","mean fluorescence values detected for the control wells (pH 6 LB broth, +10 minutes)","mean fluorescence values detected for the control wells (pH 6 LB broth, +30 minutes)","mean fluorescence values detected for the control wells (pH 7 LB broth, 10 seconds)","mean fluorescence values detected for the control wells (pH 7 LB broth, +5 minutes)","mean fluorescence values detected for the control wells (pH 7 LB broth, +10 minutes)","mean fluorescence values detected for the control wells (pH 7 LB broth, +30 minutes)","mean fluorescence values detected for the control wells (pH 8 LB broth, 10 seconds)","mean fluorescence values detected for the control wells (pH 8 LB broth, +5 minutes)","mean fluorescence values detected for the control wells (pH 8 LB broth, +10 minutes)","mean fluorescence values detected for the control wells (pH 8 LB broth, +30 minutes)","mean fluorescence values detected for the control wells (pH 9 LB broth, 10 seconds)","mean fluorescence values detected for the control wells (pH 9 LB broth, +5 minutes)","mean fluorescence values detected for the control wells (pH 9 LB broth, +10 minutes)","mean fluorescence values detected for the control wells (pH 9 LB broth, +30 minutes)"
"Cc1cc(=O)oc2c(F)c(O[C@H]3O[C@H](CO)[C@@H](O)[C@H](O)[C@H]3O)c(F)cc12 [Comparative Example A, 6′,8′-Difluoro-4′-methylumbelliferyl α-D-glucopyranoside]","1,768 RFU","1,750 RFU","1,743 RFU","1,805 RFU","1,536 RFU","1,519 RFU","1,508 RFU","1,439 RFU","2,547 RFU","2,601 RFU","2,666 RFU","3,020 RFU","1,381 RFU","1,397 RFU","1,496 RFU","2,521 RFU"
"Cc1cc(=O)oc2cc(O[C@H]3O[C@H](CO)[C@@H](O)[C@H](O)[C@H]3O)c(F)cc12 [Example 1, 6′-Fluoro-4′-methylumbelliferyl α-D-glucopyranoside]",978 RFU,920 RFU,870 RFU,746 RFU,989 RFU,936 RFU,895 RFU,763 RFU,940 RFU,884 RFU,845 RFU,723 RFU,825 RFU,772 RFU,738 RFU,633 RFU
"Cc1cc(=O)oc2cc(O[C@H]3O[C@H](CO)[C@@H](O)[C@H](O)[C@H]3O)cc(F)c12 [Example 2, 5′-Fluoro-4′-methylumbelliferyl α-D-glucopyranoside]",828 RFU,784 RFU,738 RFU,622 RFU,720 RFU,679 RFU,646 RFU,547 RFU,616 RFU,573 RFU,538 RFU,455 RFU,501 RFU,449 RFU,421 RFU,365 RFU
"Cc1cc(=O)oc2cc(O[C@H]3O[C@H](CO)[C@@H](O)[C@H](O)[C@H]3O)ccc12 [MUG, 4′-methylumbelliferyl-α-D-glucopyranoside]",868 RFU,802 RFU,756 RFU,656 RFU,722 RFU,670 RFU,636 RFU,557 RFU,628 RFU,569 RFU,535 RFU,463 RFU,494 RFU,436 RFU,406 RFU,338 RFU
